Measurements from patent publication US20200283498A1, “T CELL RECEPTOR FUSIONS AND CONJUGATES AND METHODS OF USE THEREOF” (Altor Bioscience LLC, priority 2008, published 2020).

Tests used:
[1] = system: immune cells; format: in vivo, human
Description: FIG. 33A is a line graph showing serum IFN-γ levels (determined by ELISA analysis) of subjects following treatment with 0.04 mg/kg ALT-801 (MTD level). FIG. 33B is a line graph showing IFN-γ ELISPOT analysis of PBMCs for subjects treated with 0.04 mg/kg ALT-801 (MTD level). Peripheral blood mononuclear cells (PBMCs) were prepared from samples collected pre-dosing (Cycles 1 & 2) and 2 hours after the drug infusion of dose 3 and 7. Following overnight incubation in medium alone or medium containing ALT-801, p53-positive A375 tumor cells or ALT-801+A375 tumor cells, activated immune effector cells were measured using ELISPOT for IFN-γ production
Based on PK profile, the IL-2 receptors on the surface of immune cells (i.e. NK cells and T-cells) in the patient are anticipated to be fully occupied by the ALT-801 circulating in the patient's serum when a dose of 0.015 mg/kg or higher is administered. […] IFN-γ is produced by activated NK and T-cells and its induction by ALT-801 likely correlates with an increase in effector cell cytolytic activity that plays a role in the antitumor responses. […] Thus the lack of treatment-related TNF-α expression may contribute to the reduced toxicity observed with ALT-801 treatment compared with high-dose IL-2.
The effects of ALT-801 on cell-mediated immune responses were also examined in treated patients. Blood samples were collected from subjects at pre-dosing on the first study drug infusion day and 2 hours after the drug infusion on the third drug infusion day during the first and second treatment cycles. Peripheral blood mononuclear cells (PBMCs) were prepared and incubated overnight in medium alone or medium containing ALT-801, p53-positive A375 tumor cells or ALT-801+A375 tumor cells. Levels of activated immune effector cells were measured using ELISPOT for interferon-gamma (IFN-γ) production. […] These cells were not found in the blood during the treatment cycle (i.e. Dose 3 and Dose 7 samples), consistent with lymphocyte migration to the tumor site. […] Together, these findings indicate that ALT-801 treatment at the MTD level provided favorable pharmacokinetics and immunostimulatory activity necessary for antitumor responses.

[2] = system: metastatic malignancies that express HLA-A2/p53 peptide complexes; assay: Phase I/IIa clinical study of ALT-801: tumor assessment (RECIST); format: in vivo, human
Description: FIG. 35 sets forth Table 2 depicting preliminary tumor assessment for evaluable subjects treated with 0.015, 0.04 or 0.08 mg/kg ALT-801. […] For SD (highlighted), change in target lesions compared to baseline is indicated at week 7 or 11 after the first dose.
ALT-801 is currently being evaluated in a multi-course dose-escalation Phase I/IIa clinical study in patients with metastatic malignancies that express HLA-A2/p53 peptide complexes, the antigenic target of ALT-801. The primary endpoints in this dose-escalation study are to evaluate the safety, determine the maximum-tolerated dose (MTD), and characterize the pharmacokinetic profile of ALT-801 administered to patients with progressive metastatic malignancies. Secondary endpoints include evaluation of ALT-801 immunogenicity and assessment of the patient's immune response and anti-tumor response. Each subject enrolled receives up to a total of 8 doses of the study drug in the following schedule: once daily as an intravenous bolus for the first 4 days (cycle 1), followed by a 10-day rest period of no study drug treatment (rest period) and then once daily as an intravenous bolus for an additional 4 days (cycle 2). The trial design includes a dose escalation phase of 3-6 subjects/cohort with starting dose of 0.015 mg/kg (equivalent to approximately 50,000 IL-2 IU/kg) and an expansion phase with 10 additional patients treated at the MTD level. At least 23 patients have been treated with at least one dose of ALT-801 at the 0.015 mg/kg (4 patients), 0.04 mg/kg (13 patients) and 0.08 mg/kg (6 patients).
The effects of ALT-801 on tumors was assessed based on RECIST criteria by comparing baseline (pre-dose) CT scans with those taken in follow-up visits at week 7 and 11.

[3] = system: human NSCLC A549-A2 tumor cells; assay: Adoptive transfer of preincubated NK cells in A549-A2 experimental metastasis model; format: in vivo, athymic nude mice; conditions: CTX 200 mg/kg ip days 14, 21; NK cells preincubated with the protein iv days 16, 22 (CTX group: no NK cells)
[4] = system: human PBMCs and purified NK cells; assay: In vitro activation of human PBMCs and purified NK cells by ALT-801; format: cell-based; conditions: concentrations observed in patients; overnight incubation

Substance: ALT-801: recombinant humanized soluble single-chain TCR-cytokine fusion protein: human TCR β constant domain, murine TCR antigen-binding regions, human IL2; p53 (aa 264-272)/HLA-A2.1 specific
- serum IFN-γ induction by dose level ([1]; 0.04 mg/kg or 0.08 mg/kg): equivalent levels of serum IFN-γ induction that were higher than those observed at the 0.015 mg/kg dose level
- serum IFN-γ concentrations ([1]; 4-8 hours after dosing, particularly following the fourth dose): increase in serum IFN-γ concentrations
- immune cells responsive to ALT-801+A375 tumor cells (ELISPOT) ([1]; Pre-dose Cycle-2 sample): increase in immune cells responsive to ALT-801+A375 tumor cells
- IFN-γ-positive cells in blood (ELISPOT) ([1]; during the 2-cycle course of treatment): little or no increase in IFN-γ-positive cells
- patients with stable disease status ([2]; 11 weeks after treatment): approximately 50%
- tumor shrinkage ([2]; cohort 3 subjects with stable disease): up to 23%
- subjects with stable disease, cohort 3 ([2]; six evaluated subjects): four (three with melanoma and one with renal cell carcinoma) of six evaluated subjects of cohort 3 showed stable disease
- subjects with stable disease, cohort 2 ([2]; six subjects): three (prostate cancer, head and neck cancer and renal cell carcinoma) have achieved stable disease status
- change in target lesion LD compared to baseline ([2]; subject 02004 Metastatic Head and Neck, second course 0.04 mg/kg, over 9 month): −3.3%
- Median survival [3]: 85.5 days
- activation of human PBMCs and purified NK cells [4]: able to fully activate human PBMCs and purified NK cells
